The source of these data is patent US20210206763A1, “Anti-Proliferative Agents” (FEMTOGENIX LIMITED, priority 2015, published 2021).

Experiment [1] concerns HexA DNA fragment. Description: DNA footprinting. It counts as binding. Conditions: overnight incubation of ligand-DNA complexes. Here is the method:
(§1) The DNA sequence selectivity profile of selected molecules was investigated using a modification of the previously established DNA footprinting assay ^[32]. Following an overnight incubation of the ligand-DNA complexes, the mixture was mixed with strand separation buffer containing 10 mM EDTA, 10 mM NaOH, 0.1% bromophenol blue, 80% formamide and incubated at 100° C. for 3 min. The mixture was then immediately cooled on ice and run on an 8% denaturing gel. […] 93 (solid black line) also interacts with two further sites. The PBD dimer Talirine (green) illustrates a different binding pattern to 73, 76, 81, 88 and 93. Strong DNA footprints are represented by solid lines and weaker footprints are represented by hatched lines. […] Strong DNA footprints are represented by solid lines, and weaker footprints are represented by hatched lines
(§2) Footprinting reactions were performed as previously described ^[36] using the DNA fragments HexA and HexB, which together contain all 64 symmetrical hexanucleotide sequences^[6], and MS1 that contains all possible […] tetranucleotide sequences ^[38]. The DNA fragments were obtained by cutting the parent plasmids with HindIII and SacI (for HexA and MS1) or EcoRI and PstI (for HexB), and were labelled at the 3′-end of the HindIII or EcoRI sites with [α-^32P]dATP using reverse transcriptase or exo-Klenow fragment. After gel purification, the radiolabelled DNA was dissolved in 10 mM Tris-HCl pH 7.5 containing 0.1 mM EDTA, at a concentration of about 10 c.p.s per μL as determined on a hand held Geiger counter. 1.5 μL of radiolabelled DNA was mixed with 1.5 μL ligand that had been freshly diluted in 10 mM Tris-HCl pH 7.5, containing 10 mM NaCl. The complexes were left to equilibrate for at least 12 hours before digesting with 2 μL DNase I (final concentration about 0.01 units/mL). The reactions were stopped after 1 minute by adding 4 μL of formamide containing 10 mM EDTA and bromophenol blue (0.1% w/v). The samples were then heated at 100° C. for 3 minutes before loading onto 8% denaturing polyacrylamide gels containing 8 M urea. Gels were fixed in 10% acetic acid, transferred to 3MM paper, dried and exposed to a phosphor screen overnight, before analysing with a Typhoon phosphorimager

The test system of experiment [2] is MS1 DNA fragment. Description: DNA footprinting. It counts as binding. Particulars: overnight incubation of ligand-DNA complexes. As to the method: as §1, §2
Experiment [3] deals with MCF-7. Description: In vitro cytotoxicity of free payloads, MTT assay. It counts as cell-based. Particulars: Homo sapiens, MCF7; 72 hour incubation. Here is the method:
(§3) The in vitro cytotoxicity of compounds 73, 76, 81, 88 and 93 were evaluated in the JIMT-1, MCF-7, MDA-MB-453 and SK-BR-3 (all breast cancer) cell lines using the standard MIT assay for a 72 hour incubation period (Table 3).
(§4) Tumor cell lines were maintained in RPMI1640 medium supplemented with 10% heat-inactivated fetal bovine serum, 2 mM L-glutamine and 1 mM sodium pyruvate. 1800 cells per well were seeded in a volume of 180 μl in a 96-well flat bottom polystyrene plate. The cells were allowed to adhere overnight at 37° C. in a CO2 incubator. Ligands were initially formulated in DMSO, and stocks stored at −80° C. They were then further formulated at lox concentration in RPMI1640 medium. 20 ul of diluted samples were added into each treatment well. On each plate, blank wells with no cells, and untreated wells containing cells, were included. Plates were then cultured at 37° C. in a CO2 incubator for 72 hrs. Cytotoxicity was evaluated using a tetrazolium salt-based assay, the MIT assay. After 72 hours, the supernatant was removed from each well and 200 μl of a sterile filtered 500 μg/ml MTT solution in water added to each well. The plates were then incubated at 37° C. in a CO2 incubator for 4 hrs. The supernatant was then removed and the formazan crystals formed solubilized by adding 15(411 of DMSO to each well. The plate was then read on a plate reader at 540 nm, and percentage cell survival calculated as follows: ((mean absorbance treated wells at concentration x−mean absorbance blank wells)÷(mean absorbance untreated wells at concentration x−mean absorbance blank wells))×100. Data were plotted as concentration in nM vs. % cell survival in Microsoft Excel, and IC50 values (concentration where cell survival is reduced by a half) were determined from the graph.
(In general: Tetrazolium dyes change colour on reduction, which living cells bring about.)

Experiment [4] deals with MDA-MB-453. Description: In vitro cytotoxicity of free payloads, MTT assay. It counts as cell-based. Particulars: Homo sapiens, 72 hour incubation. Here is the method:
as §3, §4

The subject of experiment [5] is JIMT-1. Description: In vitro cytotoxicity of free payloads, MTT assay. Particulars: Homo sapiens, 72 hour incubation. It counts as cell-based. Here is the method:
as §3, §4

Experiment [6] deals with SK-BR-3. Description: In vitro cytotoxicity of free payloads, MTT assay. It counts as cell-based. Conditions: Homo sapiens, 72 hour incubation. Here is the method: as §3, §4

Usually IC50 stands for the concentration needed to halve the response being measured. Low values mean greater potency in that assay, high ones weaker potency in that assay. Consider `COc1cc2c(cc1OCCCC(=O)Nc1cc(C(=O)Nc3ccc(-c4cc(C(=O)Nc5ccccc5)n(C)c4)cc3)n(C)c1)N=C[C@@H]1CCCCN1C2=O` [Compound 73, (S)-4-(4-((2-Methoxy-12-oxo-6a,7,8,9,10,12-hexahydrobenzo[e]pyrido[1,2-a][1,4]diazepin-3-yl)oxy)butanamido)-1-methyl-N-(4-(1-methyl-5-(phenylcarbamoyl)-1H-pyrrol-3-yl)phenyl)-1H-pyrrole-2-carboxamide], for which the “number of preferred binding sites observed in HexA” value (from here on “number … in HexA”) in experiment [1] is “five”. Besides, the “number of preferred binding sites observed in MS1” value (from here on “number … in MS1”) in experiment [2] is given as “six”. The IC50 in experiment [3] was 0.42 nM; in experiment [4] it was 0.2 nM; in experiment [5], 0.33 nM; in experiment [6], 0.27 nM.

For the compound `COc1cc2c(cc1OCCCC(=O)Nc1cc(C(=O)Nc3ccc(-c4cc(C(=O)Nc5ccc(C)cc5)n(C)c4)cc3)n(C)c1)N=C[C@@H]1CCCCN1C2=O` [Compound 76, (S)-4-(4-((2-Methoxy-12-oxo-6a,7,8,9,10,12-hexahydrobenzo[e]pyrido[1,2-a][1,4]diazepin-3-yl)oxy)butanamido)-1-methyl-N-(4-(1-methyl-5-(p-tolylcarbamoyl)-1H-pyrrol-3-yl)phenyl)-1H-pyrrole-2-carboxamide], the “number … in HexA” value in experiment [1] was “five”. Besides, the “number … in MS1” value in experiment [2] is “six”. The IC50 came to 0.53 nM in experiment [3], 0.19 nM in experiment [4], 0.43 nM in experiment [5] and 0.29 nM in experiment [6].

For the compound `COC(=O)c1ccc(NC(=O)c2cc(-c3ccc(NC(=O)c4cc(NC(=O)CCCOc5cc6c(cc5OC)C(=O)N5CCCC[C@H]5C=N6)cn4C)cc3)cn2C)cc1` [Compound 81, Methyl (S)-4-(4-(4-(4-(4-((2-methoxy-12-oxo-6a,7,8,9,10,12-hexahydrobenzo[e]pyrido[1,2-a][1,4]diazepin-3-yl)oxy)butanamido)-1-methyl-1H-pyrrole-2-carboxamido)phenyl)-1-methyl-1H-pyrrole-2-carboxamido)benzoate], in experiment [1], the “number … in HexA” value is reported as “five”. In experiment [2], the “number … in MS1” value is on record as “six”. In addition, the IC50 in experiment [3] was 1.4 nM; in experiment [4] it was 0.42 nM; in experiment [5], 0.5 nM; in experiment [6], 0.33 nM.

In the case of `COc1cc2c(cc1OCCCC(=O)Nc1cc(C(=O)Nc3ccc(-c4cn(C)c(C(=O)Nc5ccccc5)n4)cc3)n(C)c1)N=C[C@@H]1CCCCN1C2=O` [Compound 88, (S)-4-(4-(4-(4-((2-Methoxy-12-oxo-6a,7,8,9,10,12-hexahydrobenzo[e]pyrido[1,2-a][1,4]diazepin-3-yl)oxy)butanamido)-1-methyl-1H-pyrrole-2-carboxamido)phenyl)-1-methyl-N-phenyl-1H-imidazole-2-carboxamide], the “number … in HexA” value in experiment [1] was “five”. The “number … in MS1” value in experiment [2] is reported as “six”. Moreover, the IC50 came out at 0.6 nM in experiment [3], 0.13 nM in experiment [4], 0.37 nM in experiment [5] and 0.06 nM in experiment [6].

As to `COc1cc2c(cc1OCCCC(=O)Nc1cn(C)c(C(=O)Nc3ccc(-c4cc(C(=O)Nc5ccccc5)n(C)c4)cc3)n1)N=C[C@@H]1CCCCN1C2=O` [Compound 93, (S)-4-(4-((2-Methoxy-12-oxo-6a,7,8,9,10,12-hexahydrobenzo[e]pyrido[1,2-a][1,4]diazepin-3-yl)oxy)butanamido)-1-methyl-N-(4-(1-methyl-5-(phenylcarbamoyl)-1H-pyrrol-3-yl)phenyl)-1H-imidazole-2-carboxamide], in experiment [2], the “further sequences bound in MS1 not occupied by 73, 76, 81 and 88” value is given as “two”. Moreover, the IC50 turned out to be 2 nM in experiment [3], 0.18 nM in experiment [4], 0.37 nM in experiment [5] and 0.09 nM in experiment [6].
